Structures can show the parent of a compound that is named as a salt. Where two headings read alike, the source gives them in different places.
Key:
A549-mRuby cells = assay: Drug screening: effect on cell growth (cell number day 4 / day 0); conditions: 10 μM drug; for Growth_1: number of cells at day 4 divided by number of cells at day 0 / toxic_1: repeat #1; for Growth_2: number of cells at day 4 divided by number of cells at day 0 / toxic_2: repeat #2
Procedure, shortened: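 Growth was scored as day 4/day 0 cell count from images of OC43-infected (MOI 0.3) A549-mRuby nuclear-reporter cells. Compounds were added at 10 μM final after a 1 h infection at 33° C, followed by 4 days of culture at 33° C in two independent screens.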

OC43 [1] = assay: Dose-response analysis of OC43 infection; assay type: cell-based, human beta coronavirus OC43
Procedure: Dose-response analysis of OC43 infection was done similarly to the drug screening, except cells were seeded at a concentration of 5,000 cells per well and the media contained 2% BCS instead of 10% BCS. OC43 staining was performed 2 days after infection and analyzed similarly to what was described for the drug screening. A sigmoid fit was used to extract EC50 values using Matlab.

OC43 [2] = assay: Drug screening: OC43 nucleoprotein staining in infected A549-mRuby cells; assay type: cell-based, human beta coronavirus OC43; conditions: for activity at 10 µM: Betacoronavirus 1, OC43, 96 h
Procedure, shortened: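 Repurposing screen: drugs at 10 μM final added 1 h after OC43 infection (MOI 0.3) of H2B-mRuby A549 cells, 4-day incubation at 33° C. Cell counts imaged at day 0 and day 4; nucleoprotein staining per cell normalized to untreated infected wells, hit threshold >3 SD in duplicate screens, non-toxic.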

SARS-CoV-2 = assay: microbe, parasite or virus in culture; assay type: cell-based, SARS-CoV-2 (nCoV/Washington/1/2020); conditions: for EC50: read-out: EC50 SARS2
[3] = A549-mRuby cells, staining 2 days after infection, read-out: EC50 OC43
[4] = 10 μM drug, MOI 0.3, 4 days, OC43 staining normalized to no-drug controls, mean of the two screen repeats
[5] = 10 μM drug, MOI 0.3, 4 days, normalized to no-drug controls in the same plate, repeat #1
[6] = 10 μM drug, MOI 0.3, 4 days, normalized to no-drug controls in the same plate, repeat #2
[7] = Betacoronavirus 1, OC43, 48 h, read-out: EC50 OC43, A549-mRuby cells, staining 2 days after infection
[8] = 10 μM drug, MOI 0.3, 4 days, OC43 staining normalized to no-drug controls, mean of the two screen repeats, read-out: OC43_mean
[9] = 10 μM drug, MOI 0.3, 4 days, normalized to no-drug controls in the same plate, repeat #1, read-out: OC43_1: % staining of OC43 in screen repeat #1
[10] = 10 μM drug, MOI 0.3, 4 days, normalized to no-drug controls in the same plate, repeat #2, read-out: OC43_2: % staining of OC43 in screen repeat #2
[11] = Severe acute respiratory syndrome coronavirus 2

Molecule	Growth_1: number of cells at day 4 divided by number of cells at day 0 (A549-mRuby cells)	toxic_1 (A549-mRuby cells)	Growth_2: number of cells at day 4 divided by number of cells at day 0 (A549-mRuby cells)	toxic_2 (A549-mRuby cells)	OC43_mean (OC43 [2]; [4]) [%]	OC43_1: % staining of OC43 in screen repeat #1 (OC43 [2]; [5]) [%]	OC43_2: % staining of OC43 in screen repeat #2 (OC43 [2]; [6]) [%]	hit_1 (OC43 [2]; 10 μM drug, repeat #1)	hit_2 (OC43 [2]; 10 μM drug, repeat #2)	EC50 (OC43 [1]; [7]) [nM]	activity at 10 µM (OC43 [2]; [8]) [%]	activity at 10 µM (OC43 [2]; [9]) [%]	activity at 10 µM (OC43 [2]; [10]) [%]	EC50 (SARS-CoV-2; [11]) [nM]	also measured
C[C@@H]1[C@H](O)[C@@H](C)/C=C/C=C/C=C/C=C/C=C/C=C/C=C/[C@H](O[C@@H]2O[C@H](C)[C@@H](O)[C@H](N)[C@@H]2O)C[C@@H]2O[C@](O)(C[C@@H](O)C[C@@H](O)[C@H](O)CC[C@@H](O)C[C@@H](O)CC(=O)O[C@H]1C)C[C@H](O)[C@H]2C(=O)O [Amphotericin B]	4.3	0	5.8	0	6.6	1.5	11.8	1	1	–	–	–	–	–	EC50 (OC43 [1]; [3]): 40 nM; inhibition of SARS-CoV-2 infection (in words) (SARS-CoV-2): did not inhibit SARS-CoV-2 infection; EC50 (SARS-CoV-2): > 1000 nM
CN1CCCC(n2nc(Cc3ccc(Cl)cc3)c3ccccc3c2=O)CC1.O (stereo not drawn) [Azelastine HCl]	4.1	0	3.2	0	–	–	–	1	1	3700	19.1	19.6	18.5	2400	inhibition of OC43 infection (in words) (OC43 [1]; dose-response): inhibits; inhibition of SARS-CoV-2 infection (in words) (SARS-CoV-2): inhibits
CCCCOC(=O)c1ccc(N)cc1 [Butamben]	3.9	0	4.7	0	–	–	–	1	1	3100	4.9	3.8	6.1	> 10000	–
CCCCOC(=O)c1ccc(O)cc1 [Butylparaben]	3.3	0	3.6	0	–	–	–	1	1	1700	5.2	7	3.5	> 10000	–
COc1cc2c(Oc3ccc4[nH]c(C)cc4c3F)ncnc2cc1OCCCN1CCCC1 [Cediranib (AZD2171), Cediranib]	2.6	0	2.4	0	–	–	–	1	1	520	19	17.8	20.2	3600	EC50 (OC43 [1]; read-out: EC50 OC43, A549-mRuby cells, staining 2 days after infection): 500 nM
OCCN1CCN(CC/C=C2/c3ccccc3Sc3ccc(C(F)(F)F)cc32)CC1 [Flupenthixol dihydrochloride]	–	–	–	–	–	–	–	–	–	–	–	–	–	–	EC50 (OC43 [1]; read-out: EC50 OC43): 1800 nM; EC50 (SARS-CoV-2): 560 nM
CN(C)CCCN1c2ccccc2CCc2ccccc21.O [Imipramine HCl]	4.0	0	4.2	0	–	–	–	1	1	6000	–	6.7	22.3	–	activity at 10 µM (OC43 [2]; read-out: OC43_mean, 10 μM drug, MOI 0.3, 4 days, OC43 staining normalized to no-drug controls, mean of the two screen repeats): 14.5%
CCC(CC)COC(=O)[C@H](C)N[P@](=O)(OC[C@H]1O[C@@](C#N)(c2ccc3c(N)ncnn23)[C@H](O)[C@@H]1O)Oc1ccccc1 [Remdesivir]	–	–	–	–	–	–	–	–	–	–	–	–	–	100	EC50 (OC43 [1]; [3]): 960 nM; EC50 (OC43 [1]; Betacoronavirus 1, OC43, 48 h, A549-mRuby cells, staining 2 days after infection, read-out: EC50 OC43): 900 nM
Cc1ccc(O)c([C@H](CCN(C(C)C)C(C)C)c2ccccc2)c1.O=C(O)C(O)C(O)C(=O)O [Tolterodine tartrate]	5.0	0	5.1	0	–	–	–	1	1	7000	16.6	21.7	11.6	–	–
CC(CN(C)C)CN1c2ccccc2CCc2ccccc21 (stereo not drawn) [Trimipramine maleate]	–	–	–	–	–	–	–	–	–	3800	–	–	–	1500	–
Erythromycin Cyclocarbonate	5.7	0	6.0	0	18.9	16.7	21.1	1	1	–	–	–	–	–	EC50 (OC43 [1]; [3]): > 10000 nM
Ibutilide Fumarate	4.8	0	4.8	0	54.4	45.9	63.0	1	1	–	–	–	–	–	–
Ifenprodil Tartrate	4.6	0	4.9	0	25.6	29.0	22.1	1	1	–	–	–	–	–	–
Pizotifen Malate	3.4	0	2.8	0	25.4	33.3	17.5	1	1	–	–	–	–	–	–
Prochlorperazine dimaleate salt	3.1	0	3.1	0	40.2	47.2	33.1	1	1	–	–	–	–	–	–

From patent US20230285405A1, “Pharmaceuticals for Treating or Preventing Nidoviruses and Picornaviruses” (priority 2020, published 2023)
